According to ChEMBL document CHEMBL5303763, “Data for DCP probe BI-3802” (2023):

Experiments:
[1] = biological target: Kappa-type opioid receptor (Homo sapiens) (UniProt P41145); settings: Compound concentration 10.0 uM
[2] = biological target: Phosphatidylinositol 4,5-bisphosphate 3-kinase catalytic subunit gamma isoform (Homo sapiens) (UniProt P48736); assay: PIK3CG Invitrogen Lab (UK) kinase screen (BI); settings: Compound concentration 1.0 uM
[3] = biological target: 5-hydroxytryptamine receptor 1B (Homo sapiens) (UniProt P28222); settings: Compound concentration 10.0 uM
[4] = biological target: T1, 5-hydroxytryptamine receptor 1A (Homo sapiens) (UniProt P08908); settings: Compound concentration 10.0 uM
T1 sequence (whole entry): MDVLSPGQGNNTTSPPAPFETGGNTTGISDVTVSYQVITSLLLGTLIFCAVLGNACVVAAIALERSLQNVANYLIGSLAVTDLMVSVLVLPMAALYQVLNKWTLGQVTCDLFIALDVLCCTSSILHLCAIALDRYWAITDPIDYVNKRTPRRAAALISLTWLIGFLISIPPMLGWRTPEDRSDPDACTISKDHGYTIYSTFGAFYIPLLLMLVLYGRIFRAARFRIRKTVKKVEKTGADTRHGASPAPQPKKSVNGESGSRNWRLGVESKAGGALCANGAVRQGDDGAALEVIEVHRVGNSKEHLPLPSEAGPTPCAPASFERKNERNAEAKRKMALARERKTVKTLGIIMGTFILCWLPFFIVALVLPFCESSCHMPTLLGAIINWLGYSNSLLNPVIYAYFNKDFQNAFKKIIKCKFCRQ

[5] = biological target: Sodium-dependent noradrenaline transporter (Homo sapiens) (UniProt P23975); settings: Compound concentration 10.0 uM
[6] = biological target: T2, Alpha-2A adrenergic receptor (Homo sapiens) (UniProt P08913); settings: Compound concentration 10.0 uM
T2 sequence (whole entry): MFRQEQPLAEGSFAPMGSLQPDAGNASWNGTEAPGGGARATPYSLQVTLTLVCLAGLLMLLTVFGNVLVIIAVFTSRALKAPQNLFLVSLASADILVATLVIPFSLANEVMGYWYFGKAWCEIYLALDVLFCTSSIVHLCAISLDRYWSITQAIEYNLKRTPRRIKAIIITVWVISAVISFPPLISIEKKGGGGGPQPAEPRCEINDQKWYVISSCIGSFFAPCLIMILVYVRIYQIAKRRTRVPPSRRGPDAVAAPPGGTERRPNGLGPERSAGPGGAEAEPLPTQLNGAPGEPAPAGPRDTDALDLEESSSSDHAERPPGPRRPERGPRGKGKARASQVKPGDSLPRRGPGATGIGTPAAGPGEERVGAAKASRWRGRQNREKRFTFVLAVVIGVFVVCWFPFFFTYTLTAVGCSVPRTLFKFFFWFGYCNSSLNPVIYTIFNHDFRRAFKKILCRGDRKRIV

[7] = biological target: High affinity nerve growth factor receptor (Homo sapiens) (UniProt P04629); assay: NTRK1 Invitrogen Lab (UK) kinase screen (BI); settings: Compound concentration 1.0 uM
[8] = biological target: Histamine H1 receptor (Homo sapiens) (UniProt P35367); settings: Compound concentration 10.0 uM
[9] = biological target: Focal adhesion kinase 1 (Homo sapiens) (UniProt Q05397); assay: PTK2 Invitrogen Lab (UK) kinase screen (BI); settings: Compound concentration 1.0 uM
[10] = biological target: Inhibitor of nuclear factor kappa-B kinase subunit beta (Homo sapiens) (UniProt O14920); assay: IKBKB Invitrogen Lab (UK) kinase screen (BI); settings: Compound concentration 1.0 uM
[11] = biological target: Epidermal growth factor receptor (Homo sapiens) (UniProt P00533); assay: EGFR Invitrogen Lab (UK) kinase screen (BI); settings: Compound concentration 1.0 uM
[12] = biological target: Sigma non-opioid intracellular receptor 1 (Homo sapiens) (UniProt Q99720); settings: Compound concentration 10.0 uM
[13] = biological target: Insulin receptor (Homo sapiens) (UniProt P06213); assay: INSR Invitrogen Lab (UK) kinase screen (BI); settings: Compound concentration 1.0 uM
[14] = biological target: AMP-activated protein kinase (AMPK) alpha-1/beta-1/gamma-1 (Homo sapiens) (UniProt P54619+Q9Y478+Q13131); assay: AMPK A1B1G1 Invitrogen Lab (UK) kinase screen (BI); type: protein-complex assay; settings: Compound concentration 1.0 uM

Sequence of Kappa-type opioid receptor (Homo sapiens) (P41145 whole entry, canonical isoform): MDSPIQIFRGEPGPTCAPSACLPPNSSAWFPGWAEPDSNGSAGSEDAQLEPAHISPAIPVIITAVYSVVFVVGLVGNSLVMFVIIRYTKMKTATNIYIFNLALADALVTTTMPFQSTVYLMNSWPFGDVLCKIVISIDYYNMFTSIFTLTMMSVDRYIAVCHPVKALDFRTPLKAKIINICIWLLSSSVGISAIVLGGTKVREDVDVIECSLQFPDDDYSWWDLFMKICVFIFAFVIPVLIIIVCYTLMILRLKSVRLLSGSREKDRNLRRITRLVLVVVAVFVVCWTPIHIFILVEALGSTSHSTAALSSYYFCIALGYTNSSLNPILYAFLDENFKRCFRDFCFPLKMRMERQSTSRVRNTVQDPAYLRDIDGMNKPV
Sequence of 5-hydroxytryptamine receptor 1B (Homo sapiens) (P28222 whole entry): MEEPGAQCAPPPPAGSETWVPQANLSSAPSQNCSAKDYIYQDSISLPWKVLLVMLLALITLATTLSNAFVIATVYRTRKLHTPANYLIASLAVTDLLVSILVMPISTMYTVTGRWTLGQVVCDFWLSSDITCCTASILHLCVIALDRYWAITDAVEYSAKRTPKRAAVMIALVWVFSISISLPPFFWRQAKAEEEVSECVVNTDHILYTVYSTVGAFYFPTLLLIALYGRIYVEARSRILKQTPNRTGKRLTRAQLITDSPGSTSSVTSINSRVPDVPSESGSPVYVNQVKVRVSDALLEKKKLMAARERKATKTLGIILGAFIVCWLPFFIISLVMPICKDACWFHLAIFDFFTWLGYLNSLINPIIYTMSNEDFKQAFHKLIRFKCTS
Sequence of Sodium-dependent noradrenaline transporter (Homo sapiens) (P23975 whole entry): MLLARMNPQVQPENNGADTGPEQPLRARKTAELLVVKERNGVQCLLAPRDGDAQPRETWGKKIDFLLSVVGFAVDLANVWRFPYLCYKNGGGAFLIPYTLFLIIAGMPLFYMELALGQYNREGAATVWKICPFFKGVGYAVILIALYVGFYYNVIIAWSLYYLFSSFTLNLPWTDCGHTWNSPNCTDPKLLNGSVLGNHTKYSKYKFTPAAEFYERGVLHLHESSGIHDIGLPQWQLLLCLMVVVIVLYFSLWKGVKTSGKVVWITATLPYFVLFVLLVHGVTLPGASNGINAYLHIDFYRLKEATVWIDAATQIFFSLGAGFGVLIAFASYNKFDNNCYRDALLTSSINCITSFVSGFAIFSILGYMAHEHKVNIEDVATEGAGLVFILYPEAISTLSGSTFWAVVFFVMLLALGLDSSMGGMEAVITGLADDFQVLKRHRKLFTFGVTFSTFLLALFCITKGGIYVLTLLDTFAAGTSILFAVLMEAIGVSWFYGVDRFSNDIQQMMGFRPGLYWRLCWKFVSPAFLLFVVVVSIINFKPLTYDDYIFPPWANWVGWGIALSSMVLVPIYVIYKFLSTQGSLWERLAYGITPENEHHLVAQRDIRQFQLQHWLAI
Sequence of Sigma non-opioid intracellular receptor 1 (Homo sapiens) (Q99720 whole entry): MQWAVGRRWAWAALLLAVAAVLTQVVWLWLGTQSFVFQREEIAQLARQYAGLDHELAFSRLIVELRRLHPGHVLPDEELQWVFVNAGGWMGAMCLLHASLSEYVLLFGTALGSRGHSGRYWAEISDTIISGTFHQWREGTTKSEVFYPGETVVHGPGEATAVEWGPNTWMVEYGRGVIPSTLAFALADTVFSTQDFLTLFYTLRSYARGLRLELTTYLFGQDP
Sequence of Histamine H1 receptor (Homo sapiens) (P35367 whole entry): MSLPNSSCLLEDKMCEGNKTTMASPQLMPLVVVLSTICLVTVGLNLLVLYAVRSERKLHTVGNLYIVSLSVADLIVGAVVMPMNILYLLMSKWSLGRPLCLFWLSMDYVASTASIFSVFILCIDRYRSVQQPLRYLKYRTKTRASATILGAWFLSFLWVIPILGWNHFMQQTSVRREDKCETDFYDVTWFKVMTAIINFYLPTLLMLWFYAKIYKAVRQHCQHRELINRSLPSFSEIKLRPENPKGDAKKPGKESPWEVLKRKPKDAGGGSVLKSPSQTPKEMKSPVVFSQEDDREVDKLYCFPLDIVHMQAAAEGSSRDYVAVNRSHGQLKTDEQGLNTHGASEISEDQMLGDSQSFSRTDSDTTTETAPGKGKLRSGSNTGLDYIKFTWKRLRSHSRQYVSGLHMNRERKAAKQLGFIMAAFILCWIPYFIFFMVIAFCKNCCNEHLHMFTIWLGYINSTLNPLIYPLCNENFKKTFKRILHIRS
Sequence of Insulin receptor (Homo sapiens) (P06213 28-758 limits assumed): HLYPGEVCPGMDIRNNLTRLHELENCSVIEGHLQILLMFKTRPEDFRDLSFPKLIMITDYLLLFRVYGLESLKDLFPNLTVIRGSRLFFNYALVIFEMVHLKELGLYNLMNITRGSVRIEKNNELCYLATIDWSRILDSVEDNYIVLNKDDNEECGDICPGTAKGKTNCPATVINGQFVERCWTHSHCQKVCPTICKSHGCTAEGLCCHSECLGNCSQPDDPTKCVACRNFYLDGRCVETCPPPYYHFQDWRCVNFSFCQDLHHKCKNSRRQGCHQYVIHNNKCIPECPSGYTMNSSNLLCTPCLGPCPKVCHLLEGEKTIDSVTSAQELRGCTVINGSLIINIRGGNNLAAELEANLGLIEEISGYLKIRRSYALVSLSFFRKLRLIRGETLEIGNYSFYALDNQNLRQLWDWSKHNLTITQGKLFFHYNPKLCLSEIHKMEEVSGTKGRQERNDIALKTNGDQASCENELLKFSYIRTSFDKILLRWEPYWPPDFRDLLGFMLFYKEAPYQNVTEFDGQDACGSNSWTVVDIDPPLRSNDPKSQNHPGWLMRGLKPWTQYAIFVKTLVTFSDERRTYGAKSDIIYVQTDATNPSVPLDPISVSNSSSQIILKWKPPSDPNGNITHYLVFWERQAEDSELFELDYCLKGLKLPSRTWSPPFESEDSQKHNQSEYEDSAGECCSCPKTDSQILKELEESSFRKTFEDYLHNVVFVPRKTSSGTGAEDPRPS
Sequence of Insulin receptor (Homo sapiens) (P06213 763-1382 limits assumed): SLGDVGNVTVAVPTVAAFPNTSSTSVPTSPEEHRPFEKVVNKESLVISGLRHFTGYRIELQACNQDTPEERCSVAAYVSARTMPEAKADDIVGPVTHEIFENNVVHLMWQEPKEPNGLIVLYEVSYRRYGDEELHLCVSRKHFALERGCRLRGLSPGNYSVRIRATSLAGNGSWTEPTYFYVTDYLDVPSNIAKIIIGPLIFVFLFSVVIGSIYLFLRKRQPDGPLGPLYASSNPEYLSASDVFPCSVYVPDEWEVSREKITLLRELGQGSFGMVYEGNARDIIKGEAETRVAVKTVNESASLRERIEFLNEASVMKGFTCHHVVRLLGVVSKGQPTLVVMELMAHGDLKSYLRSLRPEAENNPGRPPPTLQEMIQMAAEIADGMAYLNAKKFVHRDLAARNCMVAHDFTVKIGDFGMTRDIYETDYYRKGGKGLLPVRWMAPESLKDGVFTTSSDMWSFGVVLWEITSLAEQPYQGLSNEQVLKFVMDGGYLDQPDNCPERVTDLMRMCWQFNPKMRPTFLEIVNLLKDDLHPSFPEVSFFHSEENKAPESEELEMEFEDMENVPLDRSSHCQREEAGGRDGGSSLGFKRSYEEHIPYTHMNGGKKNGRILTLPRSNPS
Sequence of Epidermal growth factor receptor (Homo sapiens) (P00533 whole entry): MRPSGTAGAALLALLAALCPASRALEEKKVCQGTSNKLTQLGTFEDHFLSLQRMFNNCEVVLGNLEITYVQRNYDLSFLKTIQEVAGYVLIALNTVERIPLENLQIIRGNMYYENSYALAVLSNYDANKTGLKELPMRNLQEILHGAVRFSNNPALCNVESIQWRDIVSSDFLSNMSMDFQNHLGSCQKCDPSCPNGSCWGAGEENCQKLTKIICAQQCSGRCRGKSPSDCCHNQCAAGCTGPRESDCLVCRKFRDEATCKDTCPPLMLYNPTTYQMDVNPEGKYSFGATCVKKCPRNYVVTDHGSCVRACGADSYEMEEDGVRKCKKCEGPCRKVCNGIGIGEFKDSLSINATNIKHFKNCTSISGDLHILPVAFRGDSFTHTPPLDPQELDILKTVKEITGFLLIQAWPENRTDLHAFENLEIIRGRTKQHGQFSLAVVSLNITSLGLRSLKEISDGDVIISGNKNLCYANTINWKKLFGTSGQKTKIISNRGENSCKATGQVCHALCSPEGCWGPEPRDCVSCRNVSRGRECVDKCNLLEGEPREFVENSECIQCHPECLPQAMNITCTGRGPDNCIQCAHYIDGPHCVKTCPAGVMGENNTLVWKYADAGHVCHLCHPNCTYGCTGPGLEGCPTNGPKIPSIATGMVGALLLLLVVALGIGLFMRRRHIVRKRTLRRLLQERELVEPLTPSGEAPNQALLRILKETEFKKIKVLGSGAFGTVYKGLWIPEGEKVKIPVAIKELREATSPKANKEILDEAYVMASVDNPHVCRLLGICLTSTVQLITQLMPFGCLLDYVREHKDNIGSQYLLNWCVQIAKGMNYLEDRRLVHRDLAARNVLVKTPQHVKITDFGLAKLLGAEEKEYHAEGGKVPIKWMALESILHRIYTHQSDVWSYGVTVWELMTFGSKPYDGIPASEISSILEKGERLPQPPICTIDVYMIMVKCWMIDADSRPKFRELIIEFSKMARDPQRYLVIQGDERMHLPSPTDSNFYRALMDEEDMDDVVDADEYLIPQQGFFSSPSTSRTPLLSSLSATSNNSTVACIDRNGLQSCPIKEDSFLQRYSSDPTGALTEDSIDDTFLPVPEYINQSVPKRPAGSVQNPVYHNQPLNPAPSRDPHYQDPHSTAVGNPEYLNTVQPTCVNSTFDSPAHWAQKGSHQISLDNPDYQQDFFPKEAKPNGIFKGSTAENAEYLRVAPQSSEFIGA

CNC(=O)COc1cc2cc(Nc3nc(N4C[C@H](C)C[C@H](C)C4)ncc3Cl)ccc2n(C)c1=O
inactive: inhibition [1] 33.5% | residual activity [2] 95% | inhibition [3] 8.61% | inhibition [4] 27% | inhibition [5] 9.75% | inhibition [6] 5.49% | residual activity [7] 83% | inhibition [8] 6.31% | residual activity [9] 106% | residual activity [10] 102% | residual activity [11] 88% | inhibition [12] 19.9% | residual activity [13] 100% | residual activity [14] 101%
